According to PMC6272674, “Selected Compounds Structurally Related to Acyclic Sesquiterpenoids and Their Antibacterial and Cytotoxic Activity” (Molecules, 2015):

Test system: not listed separately
Experiment: MTT viability, MEWO
Type: cell-based, human
Conditions: human, MEWO malignant melanoma cells, 1000 µM (IC50 exceeded 1000 µM), read-out: viability ± standard deviation at 1000 µM
Protocol: (§1) Cell lines and in vitro culture conditions: The human promyelocytic leukaemia cell line HL-60 was obtained from the Centre of Molecular and Macromolecular Biology in Łódź, Poland and was cultured in RPMI 1640 medium with 20% heat-inactivated fetal bovine serum (FBS). To reduce spontaneous differentiation, the cells were never allowed to exceed a concentration of 1.0 × 10^6 cells/mL. The human keratinocyte cell line HaCaT was obtained from Cell Lines Service, Germany (CLS) and cultured in DMEM medium with 10% FBS. Human colorectal adenocarcinoma HT29 and normal epithelial IEC-6 cell lines (from ATCC) were cultured in DMEM medium with 10% FBS. The human skin melanoma cell line MEWO (from CLS) was cultured in DMEM:F12 supplemented with 2 mM L-glutamine and 10% FBS. Human fibroblasts from gingiva isolated from original tissue, HFIB-G, (from Provitro) were cultured in Quantum 333 (from Immunique). The media were supplemented with 100 U/mL penicillin and 100 µg/mL streptomycin; all media components were obtained from Life Technologies. The adherent cell lines used in the studies were seeded on microplates before they exceeded 80% of confluence. Cells were cultured at 37 °C in 5% CO2 air atmosphere/95% air atmosphere.
(§2) Cytotoxic activity: The cells (the density for HL-60 was 0.5 × 10^4 cells/100 µL, otherwise it was 1 × 10^4 cells/100 µL) were plated into each well of 96-well microtiter plates and, after their attachment to the plate surface, treated with 10 µL of the indicated concentrations of compounds for 24 h. Viability was determined by MTT assay following the treatment. MTT (3-[4.5-dimethylthiazol-2-yl]-2.5-diphenyltetrazolium bromide; Sigma, St. Louis, MO, USA) solution was added to each well and incubated for another 4 h. The resulting MTT-formazan product was dissolved by the addition of lysis buffer (20% SDS and 50% DMF). The amount of formazan was determined by measuring absorbance at 570 nm with a Synergy 2 microplate reader (BioTek, Winooski, VT, USA) operated by the Gen5 program. The experiments were conducted three times with five replications. The results are expressed as an optical density ratio of the treatment to control. All data are presented as means ± SD.

Compound	viability at 24 h, 1000 µM [%]
C=CC(C)(O)CCC=C(C)C(C)CCC=C(C)C (stereo not drawn) [Compound 12]	97
C=CC(C)(O)CCC=CC(C)CCC=C(C)C (stereo not drawn) [Compound 13]	83
C=CC(C)(O)CCC=C(C)C(C)CCCC(C)C (stereo not drawn) [Compound 14]	99

Test system: not listed separately
Experiment: MTT viability, HT29
Type: cell-based, human
Conditions: human, HT29 colorectal adenocarcinoma cells, 1000 µM (IC50 exceeded 1000 µM), read-out: viability ± standard deviation at 1000 µM
Protocol: as §1, §2

Compound	viability at 24 h, 1000 µM [%]
C=CC(C)(O)CCC=C(C)C(C)CCC=C(C)C (stereo not drawn) [Compound 12]	97
C=CC(C)(O)CCC=CC(C)CCC=C(C)C (stereo not drawn) [Compound 13]	99
C=CC(C)(O)CCC=C(C)C(C)CCCC(C)C (stereo not drawn) [Compound 14]	112

Test system: Promyelocytic Leukaemia HL-60
Experiment: MTT viability, HL-60
Type: cell-based, human
Conditions: Homo sapiens, HL-60, 24 h, HL-60, MTT, range 10–1000 µM, read-out: half maximal inhibitory concentration (IC50), interpolated
Protocol: as §1, §2

IC50 [µM]	Compound
500	C=CC(C)(O)CCC=C(C)C(C)CCC=C(C)C (stereo not drawn) [Compound 12]
400	C=CC(C)(O)CCC=CC(C)CCC=C(C)C (stereo not drawn) [Compound 13]
750	C=CC(C)(O)CCC=C(C)C(C)CCCC(C)C (stereo not drawn) [Compound 14]

Test system: not listed separately
Experiment: MTT viability, HFIG
Type: cell-based, human
Conditions: human, HFIG (HFIB-G) gingival fibroblasts, 1000 µM (IC50 exceeded 1000 µM), read-out: viability ± standard deviation at 1000 µM
Protocol: as §1, §2

Compound	viability at 24 h, 1000 µM [%]
C=CC(C)(O)CCC=C(C)C(C)CCC=C(C)C (stereo not drawn) [Compound 12]	110
C=CC(C)(O)CCC=CC(C)CCC=C(C)C (stereo not drawn) [Compound 13]	87
C=CC(C)(O)CCC=C(C)C(C)CCCC(C)C (stereo not drawn) [Compound 14]	99

Test system: not listed separately
Experiment: MTT viability, HaCaT
Type: cell-based, human
Conditions: human, HaCaT keratinocytes, 1000 µM (IC50 exceeded 1000 µM), read-out: viability ± standard deviation at 1000 µM
Protocol: as §1, §2

Compound	viability at 24 h, 1000 µM [%]
C=CC(C)(O)CCC=C(C)C(C)CCC=C(C)C (stereo not drawn) [Compound 12]	101
C=CC(C)(O)CCC=CC(C)CCC=C(C)C (stereo not drawn) [Compound 13]	87
C=CC(C)(O)CCC=C(C)C(C)CCCC(C)C (stereo not drawn) [Compound 14]	106

Test system: not listed separately
Experiment: MTT viability, IEC6
Type: cell-based
Conditions: rat, IEC-6 small intestine epithelial cells, 1000 µM (IC50 exceeded 1000 µM), read-out: viability ± standard deviation at 1000 µM
Protocol: as §1, §2

Compound	viability at 24 h, 1000 µM [%]
C=CC(C)(O)CCC=C(C)C(C)CCC=C(C)C (stereo not drawn) [Compound 12]	73
C=CC(C)(O)CCC=CC(C)CCC=C(C)C (stereo not drawn) [Compound 13]	96
C=CC(C)(O)CCC=C(C)C(C)CCCC(C)C (stereo not drawn) [Compound 14]	65

Test system: Staphylococcus aureus ATCC 43300
Experiment: not given
Design: method as in doi:10.1002/ffj.3238
Conditions: data presented by the authors before; cited from earlier work

Compound	Minimum Inhibitory Concentrations MIC [µg/mL]
C=CC(C)(O)CCC=C(C)C(C)CCC=C(C)C (stereo not drawn) [Compound 12]	48
C=CC(C)(O)CCC=CC(C)CCC=C(C)C (stereo not drawn) [Compound 13]	46
C=CC(C)(O)CCC=C(C)C(C)CCCC(C)C (stereo not drawn) [Compound 14]	48

Test system: Enterococcus faecalis ATCC 51299
Experiment: not given
Design: method as in doi:10.1002/ffj.3238
Conditions: data presented by the authors before; cited from earlier work

Compound	Minimum Inhibitory Concentrations MIC [µg/mL]
C=CC(C)(O)CCC=C(C)C(C)CCC=C(C)C (stereo not drawn) [Compound 12]	46
C=CC(C)(O)CCC=CC(C)CCC=C(C)C (stereo not drawn) [Compound 13]	42
C=CC(C)(O)CCC=C(C)C(C)CCCC(C)C (stereo not drawn) [Compound 14]	38

Test system: Enterococcus faecium ATCC 35667
Experiment: not given
Design: method as in doi:10.1002/ffj.3238
Conditions: data presented by the authors before; cited from earlier work

Compound	Minimum Inhibitory Concentrations MIC [µg/mL]
C=CC(C)(O)CCC=C(C)C(C)CCC=C(C)C (stereo not drawn) [Compound 12]	42
C=CC(C)(O)CCC=CC(C)CCC=C(C)C (stereo not drawn) [Compound 13]	38
C=CC(C)(O)CCC=C(C)C(C)CCCC(C)C (stereo not drawn) [Compound 14]	36

Test system: Escherichia coli ATCC 25922
Experiment: not given
Design: method as in doi:10.1002/ffj.3238
Conditions: data presented by the authors before; cited from earlier work

Compound	Minimum Inhibitory Concentrations MIC [µg/mL]
C=CC(C)(O)CCC=C(C)C(C)CCC=C(C)C (stereo not drawn) [Compound 12]	40
C=CC(C)(O)CCC=CC(C)CCC=C(C)C (stereo not drawn) [Compound 13]	40
C=CC(C)(O)CCC=C(C)C(C)CCCC(C)C (stereo not drawn) [Compound 14]	38

Test system: Klebsiella pneumoniae ATCC 700603
Experiment: not given
Design: method as in doi:10.1002/ffj.3238
Conditions: data presented by the authors before; cited from earlier work

Compound	Minimum Inhibitory Concentrations MIC [µg/mL]
C=CC(C)(O)CCC=C(C)C(C)CCC=C(C)C (stereo not drawn) [Compound 12]	28
C=CC(C)(O)CCC=CC(C)CCC=C(C)C (stereo not drawn) [Compound 13]	20
C=CC(C)(O)CCC=C(C)C(C)CCCC(C)C (stereo not drawn) [Compound 14]	18

Test system: Acinetobacter baumannii ATCC 19606
Experiment: not given
Design: method as in doi:10.1002/ffj.3238
Conditions: data presented by the authors before; cited from earlier work

Compound	Minimum Inhibitory Concentrations MIC [µg/mL]
C=CC(C)(O)CCC=C(C)C(C)CCC=C(C)C (stereo not drawn) [Compound 12]	26
C=CC(C)(O)CCC=CC(C)CCC=C(C)C (stereo not drawn) [Compound 13]	22
C=CC(C)(O)CCC=C(C)C(C)CCCC(C)C (stereo not drawn) [Compound 14]	28
